Data reported in patent US20240116923A1, “USE OF INDOLE, 6- AND 7-AZAINDOLE DERIVATIVES AS INHIBITORS OF FERROPTOSIS REGULATED CELL DEATH” (Seabelife, priority 2021, published 2024).

How the values were obtained:
[1] = system: Rat dopaminergic neurons; experiment: Protective effect after 6-OHDA injury on rat primary dopaminergic neurons survival (TH staining); format: cell-based; conditions: for cellular death of dopaminergic neurons after 6-OHDA injury: 1 h before and during 2 days of 6-OHDA 20 μM (alone 48%), p<0.001; for rescue of dopaminergic neurons from cell death after 6-OHDA injury: at every concentration tested of 10 μM, 1 μM and 0.1 μM
Protocol: As explained in Ding et al., J Neurochem., 2004, (89), administration of 6-Hydroxydopamine (6-OHDA), a neurotoxin, has been widely used to cause the selective degeneration of dopamine (DA) neurons in in vitro and in vivo models. These models are used as Parkinson's disease models, which is characterized by the progressive loss of DA neurons of the substantia nigra.
Rat dopaminergic neurons were cultured as described by Schinelli et al., J Neurochem., 1988, 50(6). The cells were seeded at a density of 40 000 cells/well in 96 well-plates (precoated with poly-D-lysine; Greiner, Ref: 655940, Batch: E20093UL) and were cultured at 37° C. in a humidified air (95%)/CO2 (5%) atmosphere. Half of the medium was changed every 2 days with fresh medium. In these conditions, after 5 days of culture, astrocytes are present in the culture and release growth factor allowing neurons differentiation. In this condition, 2 to 5% of neurons are dopaminergic neurons.
6-OHDA (Sigma, Ref: 162957, Batch MKCK5243) was reconstituted in define culture medium at 40 μM (stock solution). The control medium was prepared in the same conditions. After 7 days of culture, primary mesencephalic neurons were pre-treated for 1 hour with test compounds or reference compound (BDNF, 50 ng/mL) and then intoxicated with 6-OHDA at a final concentration of 20 μM for 2 days incubation in order to induce a neuronal cell death of about 50%+/−5%.
After 2 days of intoxication in presence or absence of test compounds, cells were fixed by a solution of 4% paraformaldehyde (Sigma, ref 6148, Batch: SZBE2390V) for 20 min at room temperature, the control conditions were fixed as well following the same procedure. The cells were then permeabilized and nonspecific sites were blocked with a solution of phosphate buffered saline (PBS; PanBiotech; ref: P04-36500, Batch: 7701020) containing 0.1% of saponin (Sigma; ref: S7900, Batch: BCBL8667V) and 1% FCS for 15 min at room temperature. Cells were incubated with a mouse monoclonal anti-Tyrosine Hydroxylase (TH, 1/10 000, Sigma; ref: T1299, Batch: 014M4835) antibody in a solution of PBS overnight at 4° C. Antibody against TH stained dopaminergic neurons. […] Nuclei of cells were labelled by a fluorescent marker (Hoechst, Sigma; ref: B1155, Batch: 046M4048V) in the same solution. For each condition, 20 pictures per well were taken using InCell Analyzer™ 2200 (GE Healthcare) with 20× magnification. Images of each culture well were taken in same condition. Analysis of cell bodies of TH positive neurons was performed using Developer software (GE healthcare). A total of 6 data per experimental condition were provided.

[2] = system: Primary cultures of porcine RPE; experiment: Cellular model of retinal pigment epithelium (RPE) phototoxicity (A2E + blue light); format: cell-based; conditions: 10 and 30 μM, A2E 30 μM + blue light, 24 h after induction; FIG. 29
Protocol: Primary cultures of porcine RPE are prepared weekly and run on 96-well culture plates after one week in vitro. The cells are incubated with the molecule 10 minutes before induction of phototoxicity. A2E (30 μM) is added to the culture medium 19 hours before cell illumination by a device equipped with blue light emitting leds (λ=[…]). Cell survival and death are detected 24 hours after induction of phototoxicity by staining cells with Hoechst (a nuclear marker) and ethidium (a marker for dead cell nuclei). Images of each well are acquired on a fluorescence microscope equipped with a motorised stage driven by Metamorph software, and cell survival is quantified by inhouse program. The molecules are tested at 10 and 30 μM unless toxicity at this concentration. The negative control corresponds to cells treated with A2E and vehicle. The positive control corresponds to cells treated with A2E and crocetin (100 μM) 48 h before illumination. The treatments are done in quadruplicate and the experiments are performed 4 times.

[3] = system: male Wistar rats; experiment: In vivo model of ischaemic acute renal failure induced by transient bilateral renal artery occlusion; conditions: rat, 15 mg/kg IP
Protocol: The experiment was carried out using male Wistar rats (Janvier Labs, C.S. 4105, Saint-Berthevin F-53941, France), weighing 200-260 g on the day of surgery. Before surgery, the animals were housed in groups 2-4 in polysulfone cages (floor area=1500 cm^2) under standard conditions: room temperature (22±2° C.), hygrometry (55±10%), light/dark cycle (12 h/12 h), air replacement (15-20 volumes/hour), water and food (SAFE, ref. A04) ad libitum. The animals were allowed to acclimate to environmental conditions for at least 5 days prior to experimentation. Rats were anesthetised with sodium pentobarbital (60 mg/kg i.p.), and placed on a servocontrolled heating table to maintain rectal temperature close to 37° C. After endotracheal intubation animals were mechanically ventilated. The abdominal cavity was exposed by medial laparotomy, both left and right renal arteries will be identified, carefully dissected from the renal vein and clamped for 40 min. During this clamping period the abdominal cavity was kept closed. The clamps were released, perfusion to the kidneys re-established and the abdominal cavity sutured. Animals where reperfusion were incomplete, as judged visually, were excluded. Post-surgical analgesia was ensured by subcutaneous administration of buprenorphine (10 50 μg/kg, sc) twice daily for 2 days (including the day of surgery). After surgery, the animals were individually housed. The animals were observed and weighted daily and the sutures were examined and disinfected with antiseptic solution (povidone-iodine) if needed.
A follow-up of body weight and mortality were performed for all animals, the day of surgery and during the 7 days following ischaemia. In order to determine creatinine and blood urea nitrogen (BUN) concentrations in plasma, 6 blood samples of at least 0.3 mL were taken from each animal: before surgery and then on days 1, 2, 3 (before vehicle/SBL01 administrations), 4 and 7 after surgery. The following parameters were measured: Creatinine concentration in plasma, Blood urea nitrogen concentration, and Body weight. […]

[4] = 10 μM (first value of 'respectively')

Compound | cellular death of dopaminergic neurons after 6-OHDA injury [1, 4] [%] | rescue of dopaminergic neurons from cell death after 6-OHDA injury [1] | cell survival of RPE cells after induction of phototoxicity [2] | cellular death of dopaminergic neurons after 6-OHDA injury ([1]; 1 μM (second value of 'respectively')) [%] | creatinine plasma level ([3]; Day 2 after surgery, vs vehicle, FIG. 40) | urea plasma level ([3]; Day 2 after surgery, vs vehicle, FIG. 41) | renal function during artery occlusion (protection against renal ischaemic failure) ([3]; compared to the vehicle)
Oc1ccc(-c2cc3ccccc3[nH]2)cc1 [Compound 1, 4-(1H-indol-2-yl)phenol] | 25 | partially and significantly rescue | protect RPE cells significantly against phototoxicity | – | – | – | –
Oc1ccc(-c2cc3cccnc3[nH]2)cc1 [Compound 7, 4-(1H-pyrrolo[2,3-b]pyridin-2-yl)phenol] | 16 | partially and significantly rescue | – | 24 | significant decrease | significant decrease | protective effect
